Measured values from US4405609A, “Combination and method for increasing feed utilization efficiency in ruminants” (Eli Lilly and Company, priority 1982, dated 1983).

Legend:
[1] = system: Hereford crossbred steers; experiment: 140-day narasin/actaplanin feed study; format: in vivo
From the text: Another study was designed to show the unexpected interaction of the polyether narasin in combination with actaplanin. Two hundred forty Hereford crossbred steers averaging about 700 pounds and about 18 months of age were employed. The animals were fed corn silage and high moisture corn, plus two pounds per head per day of the following cattle supplement:
The treatments comprised three dose levels of narasin (0, 4 and 12 g./T.) and four dose levels of actaplanin (0, 10, 20 and 40 g./T.). The animals were randomly assigned to four blocks of twelve partially sheltered pens, each with five animals per pen. The treatments were allotted at random within the four 12-pen blocks such that each treatment was represented in each block. Each of the twelve treatments was replicated four times.

rumen fluid = experiment: in vitro rumen fluid fermentor assay of propionate production; format: cell-based, steers; settings: ± SD
From the text: Rumen fluid was obtained from steers which had surgically-installed fistula openings into the rumen. The steers were maintained on a high-grain ration such as the one described above.
A sample of rumen fluid was strained through four layers of cheese cloth and the eluate was collected in vacuum bottles. The particulate matter retained by the cheese cloth was resuspended in enough physiological buffer to return it to the original volume of the rumen fluid, and the eluate was strained again. The buffer utilized is described by Cheng et al., J. Dairy Sci., 38, 1225 (1955).
The two eluates were combined in a separatory funnel and allowed to stand until any remaining particulate matter separated to the top. The clear liquid layer then was removed, diluted with an equal volume of the above-mentioned buffer, and the pH of the solution was adjusted to 7.0.
Fermenter flasks were then changed with the rumen liquor thus prepared. Two fermentor flasks were used per each treatment group. The fermentor flasks were allowed to stand for four days for equilibration, and then measurements of proprionate production were made daily for six days in order to establish a control. Measurements were made by gas chromatographic methods. The fermenter flasks were then fed 20 grams per day of a finely ground ration composed of 20 percent high concentrate ration and 80 percent alfalfa hay. The individual feed efficiency enhancers, and the composition of such enhancers provided by this invention, were added to the feed and dried thereon prior to introduction of the feed ration into the fermentor flasks. The feed ration was introduced into the flasks approximately two times each day. After the initial administration of active ingredient, two days were allowed for reequilibration, and then the volatile fatty acid (VFA) production in each flask was monitored by gas chromatography for five days.

feeder calves = experiment: in vivo evaluation of monensin and actaplanin in feeder calves on high-grain ration; settings: 30 grams per ton of each agent in feed
From the text: For example, in a typical in vivo evaluation of the combination of monensin and actaplanin, feeder calves were fed a high-grain ration such as that recited above. Fifteen control animals received the feed ration with no feed efficiency enhancer additive. Another group of fifteen calves received the feed ration containing monensin at 30 grams per ton, while a third group of fifteen animals received the feed ration with actaplanin at 30 grams per ton. A combination of 30 grams per ton of monensin and 30 grams per ton of actaplanin was administered as a feed additive to the ration consumed by a fourth group of fifteen test animals. […] The feed efficiency of such control group, calculated as the pounds of feed consumption required for one pound of animal weight gain, was 13.49.

[2] = system: Hereford crossbred steers; experiment: 140-day monensin/actaplanin feed study, corn silage diet; format: in vivo
Protocol: The animals were divided into a control group and into eleven test groups. All animals were fed a corn silage diet ad libitum once daily throughout the 140-day study, plus two pounds per head per day of the following cattle supplement:
Test compounds were formulated as a premix with 50 percent by weight of ground corn cobs and 48 percent by weight of ground corn. The premixes were added to the corn silage feed rations in amounts necessary to provide the desired doses of active ingredients to the test animals. The data are presented as the average for the entire group of animals receiving a particular dose of active agent.
In the foregoing table, the Feed Efficiency value is calculated by dividing the average amount of feed consumed (pounds of dry matter intake) by the average daily gain in weight (in pounds). Ideally, the animals will gain more weight on less feed intake. Accordingly, the most improvement in feed utilization efficiency is represented by smaller numbers. […] The optimum in this experiment was 10 g./T. of monensin and 40 g./T. of actaplanin which produced a 13.5% improvement in feed efficiency over untreated controls.

steers [3] = experiment: further analysis of feed efficiency data: expected versus observed change; format: in vivo
From the text: When the components are utilized in amounts that are about their respective optimal dose levels when used alone, the combination causes an unexpected increase in feed utilization efficiency, which is believed the result of continued unexpected interaction. The results of this further analysis of data is presented below:
In the foregoing table, Δ is the change in feed efficiency of the treated group over the nontreated group. […] The change in efficiency is thus 0.14. The term "EΔ" is the change in efficiency expected with a combination, and is arrived at by adding the Δ values of the individual components at the appropriate dose levels. The term "OΔ" is the change in efficiency over nontreated controls actually observed with animals receiving the combination.

[4] = system: Hereford crossbred steers; experiment: 154-day trial of monensin (30 g./T.) with actaplanin; format: in vivo
From the text: In another study, two hundred Hereford crossbred steers averaging about 565 pounds were employed in a 154-day trial to determine the efficacy of combinations of monensin (at 30 g./T.) and actaplanin (at 20 g./T., 40 g./T. and 60 g./T.). The steers were fed a corn silage or corn-soya-cob roughage diet ad libitum once a day, together with a cattle supplement. The animals were divided into five treatment groups of forty steers each. These treatment groups were maintained in open pens; five animals per pen so that each treatment group comprised eight pens. Individual treatments were then assigned at random to each of the eight pens so that each treatment was replicated […] within each ration group.

ruminants = settings: Raun et al., J. Ani. Sci. 43, 670 (1976); cited from earlier work
steers [5] = experiment: combined data of the three steer studies, percentage response versus untreated controls; format: in vivo
From the text: The following figures report such data expressed as a percentage response when compared with untreated control animals.

[6] = dose giving largest increase in propionate production
From the text: The compositions provided herein comprise a polyether as defined above and a glycopeptide as defined above. The respective components will be present on a weight basis in a ratio of about 1 to about 10 parts polyether together with about 1 to about 10 parts glycopeptide. For example, a polyether such as narasin will be employed at a concentration level of about 1 to about 20 grams per ton of ruminant feedstuff, together with a glycopeptide such as avoparcin or actaplanin at a concentration level of about 5 to about 50 grams per ton of ruminant feedstuff. A particularly preferred embodiment of the invention is a combination of narasin at about 2 to about 10 grams per ton of feedstuff, and actaplanin at about 5 to about 20 grams per ton. […] Typically, the maximal doses of each component to be employed in accordance with the present invention are substantially the same as the maximal doses for effective growth promotion and feed utilization enhancement by the individual components. […] Similarly, actaplanin at a dose of about 30 grams per ton of feed effects the largest increase in propionate production observed with that agent. […]

[7] = monensin 10, actaplanin 0 grams/Ton
[8] = monensin 30, actaplanin 0 grams/Ton
[9] = monensin 0, actaplanin 10 grams/Ton
[10] = monensin 0, actaplanin 20 grams/Ton
[11] = monensin 0, actaplanin 40 grams/Ton
[12] = polyether 0, actaplanin 10 g./T.
[13] = polyether 0, actaplanin 20 g./T.
[14] = polyether 0, actaplanin 40 g./T.

## CC[C@@H](C(=O)O)[C@@H]1O[C@@H]([C@@H](C)[C@H](O)[C@H](C)C(=O)[C@H](CC)[C@H]2O[C@]3(C=C[C@@H](O)[C@]4(CC[C@@](C)([C@H]5CC[C@](O)(CC)[C@H](C)O5)O4)O3)[C@H](C)C[C@@H]2C)[C@@H](C)C[C@@H]1C [narasin]
[1]; narasin 4, actaplanin 0 g./T.
  Average Daily Dry Matter Intake: 16.41 Pounds
  Average Daily Weight Gain: 2.53 Pounds
  Average Feed Efficiency: 6.46
[1]; narasin 12, actaplanin 0 g./T.
  Average Daily Dry Matter Intake: 15.52 Pounds
  Average Daily Weight Gain: 2.52 Pounds
  Average Feed Efficiency: 6.18
[1]; narasin alone at 12 g./T.
  decrease in feed intake versus untreated controls: 7.2%

## monensin
Rumen fluid; Monensin 0.5 PPM, Actaplanin 0 PPM
  Propionate Production: 14.2 ± 1.7 mM/24 hours
Rumen fluid; Monensin 3 PPM, Actaplanin 0 PPM
  Propionate Production: 18.4 ± 3.2 mM/24 hours
Feeder calves
  Average Daily Weight Gain: 1.42 pounds
  feed efficiency (pounds of feed consumption required for one pound of animal weight gain): 12.05
[2]; [7]
  Average Daily Dry Matter Intake: 13.54 lbs
  Average Daily Dry Matter Intake % change from control: +9.6%
  Average Daily Weight Gain: 2.45 lbs
  Average Daily Weight Gain % change over control: +9.9%
  Feed Efficiency: 5.52
  Feed Efficiency % change from control: -0.3%
[2]; [8]
  Average Daily Dry Matter Intake: 12.94 lbs
  Average Daily Dry Matter Intake % change from control: +4.8%
  Average Daily Weight Gain: 2.39 lbs
  Average Daily Weight Gain % change over control: +7.2%
  Feed Efficiency: 5.42
  Feed Efficiency % change from control: -2.2%
Steers [3]; monensin 10 g./T. alone
  Δ, change in feed efficiency of the treated group over the nontreated group: 0.14
Steers [3]; monensin 10 g./T., actaplanin 0
  Feed efficiency (feed to gain ratio): 5.95
Steers [3]; monensin 30 g./T. alone
  Δ, change in feed efficiency of the treated group over the nontreated group: 0.39
Steers [3]; monensin 30 g./T., actaplanin 0
  Feed efficiency (feed to gain ratio): 5.70
[4]; [8]
  Average Daily Dry Matter Intake: 16.79 lbs
  Average Daily Weight Gain: 2.41 lbs
  Feed Efficiency: 7.01
[4]; monensin alone (30 g./T.)
  increase in feed efficiency versus control: 6.4%
ruminants
  dosage level of maximal improvement in feed efficiency: about 33 ppm
  dose level of maximal improvement in feed efficiency: about 30 grams per ton of feed

## actaplanin
Rumen fluid; Monensin 0 PPM, Actaplanin 1 PPM
  Propionate Production: 13.0 ± 2.0 mM/24 hours
Rumen fluid; Monensin 0 PPM, Actaplanin 4 PPM
  Propionate Production: 19.9 ± 3.0 mM/24 hours
Feeder calves
  Average Daily Weight Gain: 1.38 pounds
  feed efficiency (pounds of feed consumption required for one pound of animal weight gain): 12.36
[2]; [9]
  Average Daily Dry Matter Intake: 12.86 lbs
  Average Daily Dry Matter Intake % change from control: +4.1%
  Average Daily Weight Gain: 2.44 lbs
  Average Daily Weight Gain % change over control: +9.4%
  Feed Efficiency: 5.28
  Feed Efficiency % change from control: -4.9%
[2]; [10]
  Average Daily Dry Matter Intake: 12.86 lbs
  Average Daily Dry Matter Intake % change from control: +4.1%
  Average Daily Weight Gain: 2.37 lbs
  Average Daily Weight Gain % change over control: +6.3%
  Feed Efficiency: 5.43
  Feed Efficiency % change from control: -2.0%
[2]; [11]
  Average Daily Dry Matter Intake: 12.47 lbs
  Average Daily Dry Matter Intake % change from control: +1.0%
  Average Daily Weight Gain: 2.39 lbs
  Average Daily Weight Gain % change over control: +7.2%
  Feed Efficiency: 5.22
  Feed Efficiency % change from control: -6.1%
Steers [3]; actaplanin 10 g./T. alone
  Δ, change in feed efficiency of the treated group over the nontreated group: 0.09
Steers [3]; actaplanin 20 g./T. alone
  Δ, change in feed efficiency of the treated group over the nontreated group: 0.28
Steers [3]; actaplanin 40 g./T. alone
  Δ, change in feed efficiency of the treated group over the nontreated group: 0.36
Steers [3]; monensin 0, actaplanin 10 g./T.
  Feed efficiency (feed to gain ratio): 6.00
Steers [3]; monensin 0, actaplanin 20 g./T.
  Feed efficiency (feed to gain ratio): 5.81
Steers [3]; monensin 0, actaplanin 40 g./T.
  Feed efficiency (feed to gain ratio): 5.73
Steers [5]; [12]
  Combined Daily Gain Data, percentage response compared with untreated control: 5.5 percentage
  Combined Feed Efficiency Data, percentage response compared with untreated control: 1.3 percentage
Steers [5]; [13]
  Combined Daily Gain Data, percentage response compared with untreated control: 6.6 percentage
  Combined Feed Efficiency Data, percentage response compared with untreated control: 4.4 percentage
Steers [5]; [14]
  Combined Daily Gain Data, percentage response compared with untreated control: 6.3 percentage
  Combined Feed Efficiency Data, percentage response compared with untreated control: 5.8 percentage
[1]; actaplanin alone at 20 g./T.
  feed intake (in words): slight decrease in feed intake
  improved daily gains: 5.9%
[1]; narasin 0, actaplanin 10 g./T.
  Average Daily Dry Matter Intake: 16.47 Pounds
  Average Daily Weight Gain: 2.54 Pounds
  Average Feed Efficiency: 6.47
[1]; narasin 0, actaplanin 20 g./T.
  Average Daily Dry Matter Intake: 16.51 Pounds
  Average Daily Weight Gain: 2.66 Pounds
  Average Feed Efficiency: 6.19
[1]; narasin 0, actaplanin 40 g./T.
  Average Daily Dry Matter Intake: 16.02 Pounds
  Average Daily Weight Gain: 2.59 Pounds
  Average Feed Efficiency: 6.18
[6]
  dose that effects the largest increase in propionate production observed with that agent: about 30 grams per ton of feed
